Assays:
[1] = tested on: Rat Retina; assay: Light-induced retinal degeneration in rats, systemic (IP) nitrone; ERG and ONL histology; details: rat, in vivo
Protocol: Consistent with previous publications (1-2,5), a dose of 50 mg/kg PBN and S-PBN dissolved in saline was chosen for intraperitoneal injection in the rats in the treatment group. An equal volume of saline was injected into control rats.
A light-stress paradigm of 2,700 lux for 6 hours was used to test the effect of PBN at different time points before (0.5 hour, 3 hours, 6 hours, 12 hours, 16 hours, and 24 hours) or after (0.5 hour and 3 hours) light exposure. The effect of S-PBN was tested using the same dose and protocol of PBN at 0.5 hours before light exposure.
Electroretinography—After light exposure, rats were returned to their dim cyclic light (5-10 lux) environment for 7 days before ERG recordings were performed. Flash ERGs were recorded with the Diagnosys Espion E2 ERG System (Diagnosys, LLC, Lowell, Mass.). Rats were maintained in total darkness overnight and prepared for ERG recording under dim red light. They were anesthetized with ketamine (120 mg/kg body weight) and xylazine (6 mg/kg body weight) intramuscularly (IM). One drop of 10% (v/v) phenylephrine was applied to the cornea to dilate the pupil, and one drop of 0.5% (v/v) proparacaine HCl was applied for local anesthesia. Rats were kept on a heating pad at 37° C. during recordings. A gold electrode was placed on the cornea, a reference electrode was positioned in the mouth, and a ground electrode was placed on the foot; rats were then placed inside a Ganzfeld illuminating sphere. Responses were differentially amplified, averaged, and stored. For the assessment of rod photoreceptor function (scotopic ERG), five strobe flash stimuli were presented at flash intensities at −2.3, −1.3, 0.7, and 2.7 log cd·s/m^2. The amplitude of the a-wave was measured from the pre-stimulus baseline to the a-wave trough. The amplitude of the b-wave was measured from the trough of the a-wave to the peak of the b-wave. For the evaluation of cone function (photopic ERG), a strobe flash stimulus (3.3 log cd·s/m^2) was presented to dilated, light-adapted (5 minutes at 1.7 log cd·s/m^2) rats. The amplitude of the cone b-wave was measured from the trough of the a-wave to the peak of the b-wave.
Histology—After ERG recordings, rats were killed by carbon dioxide asphyxiation for light microscopic evaluation of retinal structure. Immediately after death, eyes were excised, placed in fixative (4% (w/v) paraformaldehyde, 2% (v/v) trichloroacetic acid, 20% (v/v) isopropyl alcohol, 2% (v/v) zinc chloride, and 72% (v/v) distilled water), and embedded in paraffin. Sections of 5 μm were cut along the vertical meridian through the optic nerve and stained with hematoxylin and eosin (H&E).
The PBN derivatives were injected intraperitoneally (IP) into albino SD rats at 50 mg/kg body weight at 0.5 hours before the start of light-damage exposure at 2,700 lux for 6 hours. After the exposure, the rats were moved to their dim cyclic room to recover for a week. Retinal damage/protection was assessed by functional analysis by ERG and structural analysis of histological sections. Dark adapted (12 hour) and Light adapted (for 2 hour) retinas were utilized as controls.

[2] = tested on: rhodopsin; assay: Rhodopsin regeneration after bleach in rats, IP nitrone; type: in vivo, rat
Protocol: FIG. 10 graphically illustrates the effects of three PBN analogs of rhodopsin regeneration. Rhodopsin content was measured as nmole/retina following the procedure as in Mandal et al. (J Biol. Chem. 2011. 286 (37):32491-501). After injection with PBN derivatives or vehicles (saline), rats were left in room light for 2 hours (light adapted or LA) and then moved to dark. At 2.5 hours dark adaptation (DA), retinas were harvested. DA-Control, Dark adapted (12 h) control retina without any treatment to show normal rhodopsin content.
Measurement of rhodopsin regeneration—To measure the effect of PBN on the rate of rhodopsin regeneration, dark-adapted rats were injected intraperitoneally with PBN (50 mg/kg) or PBS 0.5 hour prior to a 2 hour bleach in room light (˜400 lux). Immediately following the bleach (time=0 minutes), a group of PBN- and vehicle-treated rats were killed, and retinas were removed and snap frozen. The remaining rats were dark-adapted, and retinas were collected under dim red light at 45, 90, and 180 minutes after the bleach.
Rhodopsin measurements were performed as described previously (2,36) with slight modification. Briefly, under dim red light, each retina was homogenized in 450 μl of buffer containing 10 mM Tris-HCl (pH 7.4), 150 mM NaCl, 1 mM EDTA, 2% (w/v) octylglucoside, and 50 mM hydroxylamine. Homogenates were centrifuged at 16,000 g, and soluble lysates were scanned from 270-800 nm in a spectrophotometer (Ultrospec 3000 UV/Vis Spectrophotometer, GE Healthcare, Piscataway, N.J.). Samples were then bleached under room light for 10 minutes and scanned again. The difference spectra at 500 nm between pre- and post-bleached samples were used to determine rhodopsin content using a molar extinction coefficient of […] (37). The values were normalized to the total lysate volume, and data are presented as rhodopsin content/retina.

[3] = tested on: Rat Retina; details: 50 mg/kg 0.5 hour before light stress 2,700 lux for 24 hours; earlier publication (1); cited from earlier work

## CC(C)(C)/[N+]([O-])=C/c1ccccc1 [Compound 1, α-phenyl-N-tert-butyl nitrone]
[1]
  % Protection (ONL, Inferior retina): 85.0%
  % Protection (ONL, Superior retina): 87.1%
  retention of photoreceptor cells: approximately 90%
[2]; 50 mg/kg IP, 2.5 hours in the dark (FIG. 10)
  effect on rhodopsin regeneration: blocked rhodopsin regeneration significantly
[2]; 50 mg/kg IP, 45 minutes in darkness after 2 h bleach
  rhodopsin regenerated after bleach: virtually no rhodopsin was regenerated
[2]; 50 mg/kg IP, dark adaptation for 3 hours after 2 h bleach
  bleachable rhodopsin recovered: ~30%
[2]; Rattus norvegicus, rats, 50 mg/kg IP, 2 h room light then 2.5 h dark adaptation
  inhibition at 50 mg/kg: 83%
[2]; fully dark-adapted rats, mean±SEM
  rhodopsin content of rats maintained in darkness: 1.38±0.14 nmol/eye
[3]
  protection of retinal structure and function: 80-90%

— patent US20130225694A1, “COMPOSITIONS AND METHODS OF INHIBITING RETINAL DEGENERATION” (Oklahoma Medical Research Foundation, priority 2012, published 2013)
